Test system: RAS-RAF and RAS-PI3K interaction in BJeLR cells
Assay: Immunoprecipitation with HRAS antibody, blot for cRAF and PI3Kgamma
Format: cell-based
Conditions: 10% FBS
Experimental: BJeLR cells were seeded 16 hours prior to use in 10% FBS in DMEM. […] After 6 hours cells were washed twice with ice cold buffer (25 mM tris, 100 mM NaCl, 1 mM TCEP, 5 mM MgCl2, 0.1% tween-20 and 1 protease inhibitor/25 mL). Cells were scrapped, pelleted at 13,000 rpm for 10 minutes at 4° C., then passed through a 26 gauge needle several times. The solution was spun down a second time at 13,000 rpm for 15 minutes at 4° C., to remove unlysed cells and debris. HRAS antibody (Santa cruz, SC-520) was then added to the lysate (1:100) and the solution was rocked at 4° C. for 16 hours. Protein A agrose beads were then added and the solution was rotated at 4° C. for an additional 6 hours. The solutions were spun down at 1500×g for 2 minutes and the supernatant was removed by syringe. The beads were washed twice by this process with buffer, then resuspended in 2.5×SDS.

NC1(C(=O)NCCCn2cc(-c3ccc(OC(F)(F)F)cc3)c3cc(CN4CCN(Cc5c(Cl)cccc5Cl)CC4)ccc32)CCNCC1 [Compound 31MEW44, 4-amino-N-(3-(5-((4-(2,6-dichlorobenzyl)piperazin-1-yl)methyl)-3-(4-(trifluoromethoxy)phenyl)-1H-indol-1-yl)propyl)piperidine-4-carboxamide]
co-immunoprecipitated cRAF and PI3K: decreased levels of co-immunoprecipitated cRAF and PI3K

— patent US9926293B2, “Multivalent RAS binding compounds” (THE TRUSTEES OF COLUMBIA UNIVERSITY IN THE CITY OF NEW YORK, priority 2014, dated 2018)
